According to a melting point compilation (Tetko et al.; mined from patent text by program, amines drawn as free bases though some values may be those of a salt):

| melting point | SMILES |
| --- | --- |
| 110 to 112 °C | CC(C)c1ccc(N(Cc2ccc(N(C)C)cc2)C(=O)C2CCOc3ccccc32)cc1 (stereo unspecified) |
| 145 to 146 °C | Cc1cccc(C(=O)NC(NC(=NC#N)Nc2ccc(Cl)nc2)C(C)(Cl)Cl)c1 (stereo unspecified) |
| 180 to 190 °C | O=c1[nH]c2ccc(C(F)(F)F)cc2c(-c2cc(Cl)ccc2O)c1Sc1ccc(O)cc1 |
| 211 to 213 °C | COc1ccc(CCNc2nc(N)n3nc(-c4ccco4)nc3n2)cc1 |
| 155 to 162 °C | CC(=O)Oc1ccc(-n2c(-c3ccccc3)cc3c2CCCC3)cc1C(=O)O |
| 154 to 156 °C | Cc1cc(-c2c(Cl)ccc(C(=O)O)c2Cl)on1 |
| 188 to 189 °C | O=C(COc1ccc2ccccc2c1)NCc1ccc(C(=O)O)cc1 |
| 85 to 95 °C | CCOCCn1c(N2CCCN(CCC3(c4ccncc4)CCN(C(=O)c4cc(OC)c(OC)c(OC)c4)C3)CC2)nc2ccccc21 (stereo unspecified) |
| 95 to 96 °C | N#CC(CCCCOc1ccccc1)(Cn1cncn1)c1ccccc1 (stereo unspecified) |
| 90 to 91 °C | c1ccc2c(c1)C(=NOCCN1CCOCC1)c1ccccc1C1CC21 (stereo unspecified) |
| 158 to 160 °C | N#Cc1cn(C[C@@H]2CN(c3ccc(N4CCC5(CC4)OCCO5)c(F)c3)C(=O)O2)nn1 |
| 234 to 236 °C | O=C(O)c1cccc(CC2COc3cc(O)ccc3C2=O)c1 (stereo unspecified) |
| 56 to 58 °C | CNCCOc1ccc2nc(SCc3ccc(Cl)cc3)sc2c1 |
| 70 to 72 °C | CCc1noc(-c2ncn(-c3cccnc3)c2COC)n1 |
| 152 to 154 °C | CC(=O)NC[C@H]1CN(c2ccc(N3CCC4(CC3)CO4)c(F)c2)C(=O)O1 |
| 158 to 160 °C | O=C1c2ccccc2C(=O)N1OCCCN1CCN(c2ccc3ccccc3n2)CC1 |
| 50 to 51 °C | COC(=O)CCC(=O)c1ccccc1N |
| 225 to 226 °C | CC(=O)Oc1ccc(S(=O)(=O)Cl)cc1N=NC(C(C)=O)C(=O)Nc1ccccc1 (stereo unspecified) |
| 150 to 152 °C | CCC(=O)n1ccc(-c2ccc(C(=O)N3Cc4cccn4Cc4ccccc43)cc2)n1 |
| 210 to 211 °C | CC(=O)c1ccc2c(c1)[C@@H](NC(=O)Nc1ccccc1)[C@H](O)C(C)(C)O2 (relative stereo) |
| 115 to 116 °C | COc1cc(C=CC=O)ccc1OCc1csc(-c2ccccc2)n1 |

| melting point | SMILES |
| --- | --- |
| 117 °C | O=C1CC(c2ccccc2)c2cc(Br)ccc2O1 (stereo unspecified) |
| 128 to 130 °C | N#CCC=Cc1ccc(Cc2ccc(C=CCC#N)cc2)cc1 |
| 243 to 244 °C | CN1CCOc2cc(-c3cnc4[nH]cc(C(=O)C5(C)CCCCC5)c4n3)ccc21 |
| > 240 °C | Cc1c(I)c(=O)n(C2CCCC2)c2nc(Nc3ccc(N4CCNCC4)cn3)ncc12 |
| 137 to 138 °C | COc1ccc(C2=NN(CCCCOc3ccc(C4=NNC(=O)CC4C)c(F)c3F)C(=O)C2(C)C)c2cc(C(F)(F)F)sc12 (stereo unspecified) |
| 184 to 188 °C | O=C1c2c(O)ccc(O)c2-c2nn(CC(O)CO)c3ccc(NCCNCCO)c1c23 (stereo unspecified) |
| 141 to 143 °C | Cc1cc2c(c3c1NC(=O)CC3)OC(CN(C)C(=O)CCCO)C2 (stereo unspecified) |
| 58 °C | CCCCC(=O)C(Cc1ccc(C(=O)OC)cc1)c1ccccc1 (stereo unspecified) |
| 119 to 126 °C | CC(C)(C)OC(=O)N1C2CCC(C2)N1CC(O)C(Cc1ccccc1)NC(=O)OCc1ccccc1 (mixture of isomers) |
| 229 °C | Nc1nc2ccccc2n1CCCN1CCN(C(c2ccccc2)c2ccccc2)CC1 |
| 50 °C | COC(=O)CCCCOc1ccc(CNC(=O)C2Cc3ccccc3N2S(=O)(=O)c2ccc(-c3cccc(C(F)(F)F)c3)cc2)cc1 (stereo unspecified) |
| 188 to 190 °C | CCCCNC(=O)NS(=O)(=O)c1ccc(CCNC(=O)N2Cc3ccccc3C2=O)cc1 |
| 100 to 103 °C | O=C(CN1CCOCC1)N[C@@H](Cc1cccc2ccccc12)C(=O)O |
| 106 to 108 °C | Cn1nc(-c2ccccc2)nc1-c1ccccn1 |
| 148 to 149 °C | CC(C)C(C(=O)O)c1onc(-c2ccccc2)c1-c1ccc(S(N)(=O)=O)cc1 (stereo unspecified) |
| 98 to 100 °C | CCOC(=O)C(=O)Nc1cccnc1 |
| 196 to 197 °C | Nc1nc(NCCO)c(Cl)nc1[N+](=O)[O-] |
| 95 to 95.5 °C | Cn1nc(N)nc1NCCCOc1cccc(CN2CCCC2)c1 |
| 173 °C | O=[PH](O)Cc1cccc(P(c2ccccc2)c2ccccc2)c1 |
| 135 to 138 °C | CCc1nc2c(cnn2CC)c(NC2CCOCC2)c1CNC(=O)c1cccc(C(=O)NCc2ccc(C)c(-c3cccc(CN4CCNCC4)c3)c2)c1 |
| 103 to 104 °C | COc1cc(C)ccc1C(=O)O |

Continued, compound first:

| SMILES | melting point |
| --- | --- |
| CCOC(=O)c1cnc2nc(C=CC(=O)O)c(OCC)cc2c1O | > 280 °C |
| CCCCCCCCCCCCCCCCCCOC(C)c1ccc(-c2ccc(C(=O)O)cc2)cc1 (single isomer, unassigned; (+)) | 145 to 146 °C |
| CC1CCN(c2c(-c3c(F)cc(F)cc3F)c(Cl)nc3nc(SCc4ccccc4)nn23)CC1 | 147 °C |
| CCC(CC)(CCS(N)(=O)=O)COc1nn2ncnc2cc1C | 148 to 149 °C |
| CC(=O)c1ccc2c(c1)CC(NC(=O)C(F)(F)F)C2 (stereo unspecified) | 112 to 114 °C |
| O=C1NCc2c1cccc2[N+](=O)[O-] | 235 to 237 °C |
| Cc1cc(NC(=O)Nc2ccc(N(CCCl)CCCl)cc2)cc(Nc2c3ccccc3nc3ccccc23)c1 | 280 to 285 °C |
| CN1CC=C(c2cccc3ccc(O)cc23)CC1 | 182 to 184 °C |
| Cc1ccc(C(C)C)c2oc(SCCN3CCN(CC(=O)Nc4c(C(C)C)cccc4C(C)C)CC3)nc12 | 133 to 134 °C |
| Cc1ccc2c(c1)C(=O)C(=O)N2CCCN(C(C)C)C(C)C | 87 to 89 °C |
| CC(=O)c1ccc(S(=O)(=O)NCCCn2ccnc2)cc1 | 142 to 144 °C |
| O=C(CCCCl)c1ccc2oc3ccc(C(=O)CCCCl)cc3c2c1 | 102 to 104 °C |
| Cc1nc(NC(=N)N)sc1C(=O)Nc1cccc(OCC(=O)OC(C)(C)C)c1 | 204 °C |
| CCOC(=O)/C(=N\OCC(=O)N1CCCCC1)c1csc(N)n1 | 151 to 152 °C |
| COc1cc(C)c(C(=O)c2c(F)ncc(C)c2I)c(OC)c1OC | 140 to 141 °C |
| CCCc1c(OCC(=O)OC)ccc2c1OC(CCCCCCO)CC2=O (stereo unspecified) | 93 to 94.5 °C |
| Cc1cc(N(C)c2ccccc2)c2nn(C)cc2n1 | 252 to 256 °C |
| COc1ccc(-c2cnc(SC(F)(F)C(F)F)nc2-c2ccc(OC)cc2)cc1 | 118 to 120 °C |
| Cc1ccc2c(c1)c(N1CCN(C(=O)c3ccco3)CC1)c(C#N)c(=O)n2Cc1ccccc1 | 146 °C |
| CCOC(=O)c1cn(CCc2ccc(OC)cc2)c2cc(C3CC3)nn2c1=O | 160 to 165 °C |
| COc1cc(OC)cc(C(=O)NC(NC(=NC#N)Nc2ccc(Cl)nc2)C(C)(Cl)Cl)c1 (stereo unspecified) | 193 to 195 °C |
| CCN1CCC(c2c[nH]c3ccc(NC(=O)c4ccco4)cc23)CC1 | 178 to 179 °C |
| CCS(=O)c1ccc(-c2coc3ccc(-c4nnc(C)o4)cc23)c(Cl)c1 (stereo unspecified) | 151 to 152 °C |
| COc1ccc2[nH]c3c([N+](=O)[O-])cc([N+](=O)[O-])c(Cl)c3c(=O)c2c1 | 253 to 254 °C |
| CC(=NNc1ccccc1)c1ccc(N2CCN(c3c(C)nc(N)nc3N)CC2)cc1 | 239 to 241 °C |
| C[C@@H]1N[C@@H](c2ccc(C#N)cc2)[C@H]2C(=O)N(Cc3ccccc3)C(=O)[C@H]21 (racemic) | 169 to 170 °C |
| CC(=O)Oc1cccc(-c2noc(C)n2)c1 | 94 °C |

| SMILES | melting point |
| --- | --- |
| COc1cc2c(cc1OCc1ccccc1)[C@H](CO)OC2=O | 126 to 128 °C |
| N#CC1=C(Cl)CN(COC(=O)CNC(=O)CNC(=O)c2ccccc2)C1(c1ccc(Cl)cc1)C(F)(F)F (stereo unspecified) | 65 to 67 °C |
| CCc1nn(CCO)c(CC)c1C(=O)c1cc(Cl)cc(Cl)c1 | 134 °C |
| CCC1(CCC(=O)OC)CCCN2CCc3c([nH]c4ccccc34)C21 (stereo unspecified) | 110 °C |
| CCOC(=O)c1cc2c3ccccc3n(Cc3ccccc3)c2cn1 | 126 to 127 °C |
| c1ccc2c(c1)Sc1ccccc1N2c1ccc(-n2ccnc2-c2nccn2-c2ccc(N3c4ccccc4Sc4ccccc43)cc2)cc1 | 227 to 232 °C |
| CC(=O)N1CC2CC2(c2ccccc2)C1 (stereo unspecified) | 63 to 65 °C |
| COc1ccc(-n2nc(CCC(=O)O)cc2-c2ccc(Cl)cc2)cc1 | 126 to 128 °C |
| COc1ccc(-n2nnc(-c3ccc(C(F)(F)F)cc3F)c2N)cc1 | 165 to 166 °C |
| Cc1c(I)nc2n1CCc1ccccc1C2OC1CCN(C)CC1 (stereo unspecified) | 59 °C |
| OC(CN1CCN(c2ccncc2)CC1)c1ccc2nonc2c1 (stereo unspecified) | 159 to 162 °C |
| C=CCOc1ccccc1OCCNCC(O)COc1cccc2c1CC(=O)N2 (stereo unspecified) | 148 to 149 °C |
| O=S(=O)(Nc1c(F)cccc1F)c1nc2ncc(Cl)cn2n1 | 224 to 226 °C |
| CCOC(=O)c1c(SC)c(C#N)c(=O)n2ccccc12 | 128 to 129 °C |
| Cc1c(C(=O)Nc2ccc(N3CCC(N4CCC(=O)CC4)CC3)c(C#N)c2)cnn1-c1ccc(Cl)cc1 | 213 °C |
| CCCCc1nc2c(c(=O)[nH]1)CN(C(=O)OCC[Si](C)(C)C)CC2 | 152 to 155 °C |
| O=C(O)c1cn(-c2ccc(F)cc2)c2c(F)c(N3Cc4cccc(O)c4C3)c(F)cc2c1=O | > 300 °C |
| Cc1cn(C(c2ccccc2)(c2ccccc2)c2ccccc2)cn1 | 214 to 216 °C |
| COc1cnc(CCl)nc1O | 87 °C |
| O=C(O)CSc1nc(=O)[nH]cc1F | 255 °C |
| CCC(COC)n1cc(Cl)nc(N2CCc3cc(OC)cc(Cl)c32)c1=O (stereo unspecified) | 126 to 128 °C |
| CN1C(=O)CC[C@]2(C)c3ccc(Sc4cnccn4)cc3CC[C@@H]12 | 94 to 95 °C |
| CCCC1=C(C)C(=O)c2oc(Cc3ccc(OC)cc3)c(C)c2C1=O | 114 °C |
| CC(C)c1nc(COCc2ccccc2)n(Cc2ccccc2)c1Sc1cccc(Cl)c1 | 120 to 122 °C |
| C=CCN(CC=C)Cc1noc(-c2ncn3c2[C@@H]2CCCN2C(=O)c2c(Cl)cccc2-3)n1 | 175 to 177 °C |
| COc1cc2c(cc1OC)CN(CCc1ccc(N)cc1)CC2 | 120 °C |
| Cc1cnc2c(=O)[nH]c3ccc(Cl)cc3n12 | > 300 °C |
